# In ChEMBL document CHEMBL1201862, “PubChem BioAssay data set” (2004):
# Calls of active or inactive are those of the source.
# How the values were obtained:
# [1] = NIH-3T3 fibroblast cytotoxicity, dose response, cytotoxicity control, cell-based, fluorescence, Alamar Blue, secondary assay (AID 2327); assay type: functional;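 note: NIH-3T3 mouse fibroblasts cultured with fluconazole at 8 µg/mL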
# Aminopeptidase N = target: T1, Aminopeptidase N (Plasmodium falciparum FcB1/Columbia, UniProt O96935); test: P. falciparum M1AAP inhibitors, biochemical, fluorogenic H-Leu-NHMec substrate, 1536-well (AID 1445); parameters: species or system Plasmodium falciparum 3D7, 3D7
# T1 sequence (O96935 whole entry): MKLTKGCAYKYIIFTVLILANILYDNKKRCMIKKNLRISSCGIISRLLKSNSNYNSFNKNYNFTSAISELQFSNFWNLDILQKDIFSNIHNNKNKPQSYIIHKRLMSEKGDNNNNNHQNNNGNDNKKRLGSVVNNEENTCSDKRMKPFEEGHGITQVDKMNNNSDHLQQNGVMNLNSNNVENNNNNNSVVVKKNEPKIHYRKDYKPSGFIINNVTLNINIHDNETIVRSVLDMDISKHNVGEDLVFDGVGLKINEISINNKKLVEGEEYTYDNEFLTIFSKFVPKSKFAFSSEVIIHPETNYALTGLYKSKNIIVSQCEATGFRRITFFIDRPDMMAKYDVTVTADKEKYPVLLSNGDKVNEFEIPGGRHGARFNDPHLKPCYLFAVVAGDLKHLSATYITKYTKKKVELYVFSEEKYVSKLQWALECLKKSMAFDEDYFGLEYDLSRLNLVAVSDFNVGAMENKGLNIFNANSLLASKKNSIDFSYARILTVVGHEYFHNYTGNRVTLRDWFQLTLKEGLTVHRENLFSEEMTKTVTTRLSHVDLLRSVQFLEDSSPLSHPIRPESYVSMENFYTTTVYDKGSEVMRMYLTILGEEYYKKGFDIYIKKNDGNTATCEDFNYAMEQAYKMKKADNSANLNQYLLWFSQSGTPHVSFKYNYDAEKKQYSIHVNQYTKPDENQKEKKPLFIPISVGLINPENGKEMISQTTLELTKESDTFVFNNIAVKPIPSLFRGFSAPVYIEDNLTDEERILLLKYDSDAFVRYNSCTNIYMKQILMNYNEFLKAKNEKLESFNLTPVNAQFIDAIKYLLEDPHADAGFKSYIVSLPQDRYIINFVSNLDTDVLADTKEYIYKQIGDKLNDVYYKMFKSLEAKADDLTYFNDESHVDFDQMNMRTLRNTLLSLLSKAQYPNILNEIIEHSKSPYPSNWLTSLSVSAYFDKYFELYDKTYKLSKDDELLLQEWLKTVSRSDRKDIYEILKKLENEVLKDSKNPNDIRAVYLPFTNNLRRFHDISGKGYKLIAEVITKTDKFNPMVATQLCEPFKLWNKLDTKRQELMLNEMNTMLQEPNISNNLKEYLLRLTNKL
# BJ [2] = test: cytotoxicity toward BJ-TERT fibroblasts, dose response, cell-based, RAS-independent, luminescence (AID 1933); assay type: functional; details: Homo sapiens
# BJ [3] = test: cells; assay type: functional, cell-based; details: Homo sapiens
# [4] = C. albicans growth with fluconazole, confirmation, fluorescence, retest (AID 2467); assay type: functional, cell-based
# BJ [5] = test: cytotoxicity toward BJ-TERT-LT-ST fibroblasts, dose response, cell-based, RAS-independent, luminescence (AID 1935); assay type: functional; details: Homo sapiens;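 note: BJ fibroblasts immortalized with TERT plus LT and ST oncogenes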
# [6] = cytotoxicity toward DRD oncogenic fibroblasts, dose response, cell-based, non-viral oncogenic, luminescence (AID 1934); assay type: functional; details: Homo sapiens
# BJ [7] = test: cytotoxicity toward Ras-transformed BJeLR fibroblasts, dose response, cell-based, alamar blue fluorescence, cherrypicked samples (AID 2631); assay type: functional; details: Homo sapiens;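 note: confirmatory dose-response assay in RAS-dependent BJ fibroblasts engineered with TERT, LT and ST, with cytotoxicity read by fluorescence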
# [8] = target: T2, DNA repair protein RAD52 homolog (Homo sapiens, UniProt P43351); assay type: functional, biochemical
# T2 sequence (P43351 whole entry): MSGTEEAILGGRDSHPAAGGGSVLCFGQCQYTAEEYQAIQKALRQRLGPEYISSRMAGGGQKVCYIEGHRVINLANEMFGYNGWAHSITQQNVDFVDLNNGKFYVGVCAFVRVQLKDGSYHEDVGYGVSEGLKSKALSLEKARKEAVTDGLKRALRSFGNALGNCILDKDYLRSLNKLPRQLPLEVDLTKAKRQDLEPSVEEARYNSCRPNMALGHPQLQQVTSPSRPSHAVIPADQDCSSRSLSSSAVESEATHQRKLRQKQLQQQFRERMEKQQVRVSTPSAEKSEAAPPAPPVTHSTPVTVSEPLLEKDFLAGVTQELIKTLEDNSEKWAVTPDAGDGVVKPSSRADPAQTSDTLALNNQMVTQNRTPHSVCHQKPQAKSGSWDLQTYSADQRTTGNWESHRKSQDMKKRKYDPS
# [9] = growth suppression of PTEN-null colon cells, dose response, cell-based, HCT116 PTEN knockout (AID 1047); assay type: functional;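 note: HCT116 colon tumor cells with PTEN knocked out; cells exposed to compound for 60 hours before readout; potency for loss of cell viability measured by luminescence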
# [10] = growth suppression of beta-catenin-knockout colon cells, dose response, cell-based, HCT116, human colon tumor (AID 1045); assay type: functional;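 note: HCT116 colon tumor cells with beta catenin knocked out; cells exposed to compound for 60 hours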
# Vero [11] = test: cells; assay type: functional, cell-based; details: Chlorocebus sabaeus
# Vero [12] = test: cells; assay type: functional; details: Chlorocebus sabaeus
# [13] = target: Ras and Rab interactor 1/Tyrosine-protein kinase ABL1 (Homo sapiens, UniProt P00519+Q13671); assay type: functional;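 note: biochemical TR-FRET dose-response test measuring inhibition of binding between Rin1 and Abl proteins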
# Ras and Rab interactor 1/Tyrosine-protein kinase ABL1, sequence (P00519 whole entry): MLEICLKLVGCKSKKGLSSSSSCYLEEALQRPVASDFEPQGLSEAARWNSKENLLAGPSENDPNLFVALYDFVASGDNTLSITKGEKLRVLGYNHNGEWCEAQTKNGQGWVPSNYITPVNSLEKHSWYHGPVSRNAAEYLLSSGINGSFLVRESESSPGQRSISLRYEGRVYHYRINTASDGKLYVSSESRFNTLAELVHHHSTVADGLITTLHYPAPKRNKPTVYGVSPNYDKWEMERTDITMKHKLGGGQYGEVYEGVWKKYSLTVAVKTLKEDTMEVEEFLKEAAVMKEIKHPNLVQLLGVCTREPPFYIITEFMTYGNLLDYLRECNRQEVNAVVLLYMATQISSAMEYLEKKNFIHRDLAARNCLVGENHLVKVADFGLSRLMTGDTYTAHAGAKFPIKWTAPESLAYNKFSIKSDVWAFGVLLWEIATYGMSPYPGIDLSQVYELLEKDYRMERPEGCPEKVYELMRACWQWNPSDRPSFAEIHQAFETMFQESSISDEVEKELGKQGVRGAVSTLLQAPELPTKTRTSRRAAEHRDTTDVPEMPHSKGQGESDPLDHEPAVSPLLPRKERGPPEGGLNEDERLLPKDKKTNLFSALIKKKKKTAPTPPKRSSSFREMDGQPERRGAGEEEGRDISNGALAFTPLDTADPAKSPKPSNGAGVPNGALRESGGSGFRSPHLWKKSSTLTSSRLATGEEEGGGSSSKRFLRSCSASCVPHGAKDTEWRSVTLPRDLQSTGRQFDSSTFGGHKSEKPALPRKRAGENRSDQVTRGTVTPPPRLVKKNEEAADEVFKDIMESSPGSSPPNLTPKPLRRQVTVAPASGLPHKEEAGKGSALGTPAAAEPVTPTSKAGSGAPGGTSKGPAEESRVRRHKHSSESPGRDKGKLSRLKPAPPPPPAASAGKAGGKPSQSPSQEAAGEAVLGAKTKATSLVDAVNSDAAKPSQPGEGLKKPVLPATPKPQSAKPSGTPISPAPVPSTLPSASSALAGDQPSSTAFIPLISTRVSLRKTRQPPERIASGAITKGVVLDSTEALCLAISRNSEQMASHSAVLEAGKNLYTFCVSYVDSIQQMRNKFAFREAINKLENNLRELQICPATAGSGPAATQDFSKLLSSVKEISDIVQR
# Ras and Rab interactor 1/Tyrosine-protein kinase ABL1, sequence (Q13671 whole entry): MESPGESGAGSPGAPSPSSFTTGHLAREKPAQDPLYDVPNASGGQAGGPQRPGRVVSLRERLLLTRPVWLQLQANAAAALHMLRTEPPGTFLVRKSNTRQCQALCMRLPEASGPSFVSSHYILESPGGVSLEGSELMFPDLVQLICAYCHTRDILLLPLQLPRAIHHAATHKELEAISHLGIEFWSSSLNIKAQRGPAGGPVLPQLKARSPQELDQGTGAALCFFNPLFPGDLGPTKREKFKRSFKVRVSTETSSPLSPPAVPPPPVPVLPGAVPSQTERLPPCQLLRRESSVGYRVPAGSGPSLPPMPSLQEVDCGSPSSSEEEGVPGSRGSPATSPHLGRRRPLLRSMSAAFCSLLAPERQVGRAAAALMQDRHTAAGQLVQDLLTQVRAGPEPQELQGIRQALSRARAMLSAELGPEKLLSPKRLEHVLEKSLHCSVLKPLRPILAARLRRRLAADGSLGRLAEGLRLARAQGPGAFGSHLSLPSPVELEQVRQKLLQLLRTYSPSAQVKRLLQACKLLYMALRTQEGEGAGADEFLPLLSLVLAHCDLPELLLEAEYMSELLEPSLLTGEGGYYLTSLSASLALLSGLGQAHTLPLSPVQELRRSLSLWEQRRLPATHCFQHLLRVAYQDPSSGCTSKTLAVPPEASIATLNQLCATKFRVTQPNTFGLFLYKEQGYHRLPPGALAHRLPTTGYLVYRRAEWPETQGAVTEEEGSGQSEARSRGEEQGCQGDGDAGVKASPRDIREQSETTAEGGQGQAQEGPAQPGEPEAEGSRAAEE
# [14] = target: T3, Corticotropin-releasing factor receptor 2/Corticotropin-releasing factor-binding protein (Homo sapiens, UniProt P24387+Q13324); test: Dose Response confirmation of uHTS hits for small molecule antagonists of the CRF-binding protein and CRF-R2 receptor complex.; assay type: functional; details: read-out: IC50_Mean
# T3 sequence (Q13324 whole entry): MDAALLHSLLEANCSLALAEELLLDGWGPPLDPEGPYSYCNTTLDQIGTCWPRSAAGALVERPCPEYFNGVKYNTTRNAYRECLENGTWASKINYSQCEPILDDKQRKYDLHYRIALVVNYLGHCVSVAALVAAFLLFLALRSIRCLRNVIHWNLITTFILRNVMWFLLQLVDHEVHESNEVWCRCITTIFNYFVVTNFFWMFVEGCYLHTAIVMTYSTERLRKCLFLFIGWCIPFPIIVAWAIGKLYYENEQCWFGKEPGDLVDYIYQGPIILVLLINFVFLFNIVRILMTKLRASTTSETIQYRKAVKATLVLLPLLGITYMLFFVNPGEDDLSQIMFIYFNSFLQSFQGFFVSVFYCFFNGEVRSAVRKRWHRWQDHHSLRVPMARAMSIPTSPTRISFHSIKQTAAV
# T3 sequence (P24387 whole entry): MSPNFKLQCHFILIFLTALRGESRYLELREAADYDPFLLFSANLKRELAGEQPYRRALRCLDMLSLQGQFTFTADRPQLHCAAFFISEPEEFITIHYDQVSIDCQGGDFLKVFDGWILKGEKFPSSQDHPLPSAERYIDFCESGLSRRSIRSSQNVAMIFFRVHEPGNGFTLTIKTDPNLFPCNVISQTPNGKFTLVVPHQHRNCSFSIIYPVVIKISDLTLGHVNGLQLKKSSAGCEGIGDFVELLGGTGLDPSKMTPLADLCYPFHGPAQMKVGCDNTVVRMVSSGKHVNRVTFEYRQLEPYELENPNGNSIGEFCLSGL
# [15] = target: T3, Corticotropin-releasing factor receptor 2/Corticotropin-releasing factor-binding protein; test: activators of CRF receptor 2 with binding protein – uHTS hits, confirmation (AID 602473); assay type: functional; details: read-out: EC50_Mean
# [16] = CRF-BP/CRF-R2 complex antagonists, dose response, cell-based, uHTS hits, 384-well (AID 651639); assay type: functional, Homo sapiens; details: read-out: IC50_Mean
# Cytochrome P450 2C19 = Cytochrome P450 2C19 (Homo sapiens, UniProt P33261); test: Cytochrome panel assay with activity outcomes. Panel member name: p450-cyp2c19 Compounds with AC50 equal or less than 10 uM are considered active; assay type: functional; details: read-out: AC50
# Cytochrome P450 2C19, sequence (P33261 whole entry): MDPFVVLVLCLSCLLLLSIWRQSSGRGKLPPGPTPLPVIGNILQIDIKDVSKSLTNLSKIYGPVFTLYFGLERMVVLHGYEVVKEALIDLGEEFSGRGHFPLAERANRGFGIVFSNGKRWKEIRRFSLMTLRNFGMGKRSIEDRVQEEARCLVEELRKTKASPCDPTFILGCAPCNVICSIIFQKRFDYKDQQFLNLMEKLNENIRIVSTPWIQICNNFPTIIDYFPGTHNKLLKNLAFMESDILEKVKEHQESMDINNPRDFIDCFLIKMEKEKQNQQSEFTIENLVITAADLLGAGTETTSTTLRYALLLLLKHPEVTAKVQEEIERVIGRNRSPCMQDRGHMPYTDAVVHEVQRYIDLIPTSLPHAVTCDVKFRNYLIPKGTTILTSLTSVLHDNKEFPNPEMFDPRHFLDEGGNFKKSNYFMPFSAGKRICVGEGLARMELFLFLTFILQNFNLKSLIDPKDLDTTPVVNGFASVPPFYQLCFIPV
# Cytochrome P450 1A2 = target: T4, Cytochrome P450 1A2 (Homo sapiens, UniProt P05177);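 note: PubChem cytochrome P450 panel assay, CYP1A2 panel member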
# T4 sequence (P05177 whole entry): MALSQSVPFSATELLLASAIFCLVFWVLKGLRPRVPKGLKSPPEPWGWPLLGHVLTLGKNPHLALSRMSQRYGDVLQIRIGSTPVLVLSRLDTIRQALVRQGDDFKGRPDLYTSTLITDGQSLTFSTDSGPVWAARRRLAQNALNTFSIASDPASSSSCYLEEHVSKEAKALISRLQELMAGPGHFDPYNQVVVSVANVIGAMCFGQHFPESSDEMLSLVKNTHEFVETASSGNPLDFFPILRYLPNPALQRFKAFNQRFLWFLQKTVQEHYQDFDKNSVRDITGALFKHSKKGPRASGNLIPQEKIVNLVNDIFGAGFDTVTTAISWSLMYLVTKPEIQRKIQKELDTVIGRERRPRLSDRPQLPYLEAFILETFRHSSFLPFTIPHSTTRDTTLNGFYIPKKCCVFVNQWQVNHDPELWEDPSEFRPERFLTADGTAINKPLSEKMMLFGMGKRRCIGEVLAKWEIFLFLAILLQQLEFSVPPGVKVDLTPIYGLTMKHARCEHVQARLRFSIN
# Cytochrome P450 3A4 = Cytochrome P450 3A4 (Homo sapiens, UniProt P08684);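 note: CYP3A4 tested as one member of a cytochrome P450 panel screen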
# Cytochrome P450 3A4, sequence (P08684 whole entry): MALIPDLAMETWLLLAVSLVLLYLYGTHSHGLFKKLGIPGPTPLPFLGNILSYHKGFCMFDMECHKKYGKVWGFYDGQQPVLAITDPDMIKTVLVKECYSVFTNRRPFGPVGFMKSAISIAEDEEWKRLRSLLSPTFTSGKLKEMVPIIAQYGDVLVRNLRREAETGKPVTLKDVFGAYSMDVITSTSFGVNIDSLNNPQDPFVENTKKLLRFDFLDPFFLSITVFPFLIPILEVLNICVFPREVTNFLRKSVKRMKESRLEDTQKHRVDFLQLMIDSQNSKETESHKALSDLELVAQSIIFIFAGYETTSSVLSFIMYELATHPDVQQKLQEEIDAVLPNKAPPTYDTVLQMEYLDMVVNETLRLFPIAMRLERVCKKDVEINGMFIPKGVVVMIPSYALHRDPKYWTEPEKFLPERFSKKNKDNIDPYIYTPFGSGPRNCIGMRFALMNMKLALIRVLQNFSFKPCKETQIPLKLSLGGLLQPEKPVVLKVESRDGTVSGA
# Cytochrome P450 2C9 = Cytochrome P450 2C9 (Homo sapiens, UniProt P11712)
# Cytochrome P450 2C9, sequence (P11712 whole entry): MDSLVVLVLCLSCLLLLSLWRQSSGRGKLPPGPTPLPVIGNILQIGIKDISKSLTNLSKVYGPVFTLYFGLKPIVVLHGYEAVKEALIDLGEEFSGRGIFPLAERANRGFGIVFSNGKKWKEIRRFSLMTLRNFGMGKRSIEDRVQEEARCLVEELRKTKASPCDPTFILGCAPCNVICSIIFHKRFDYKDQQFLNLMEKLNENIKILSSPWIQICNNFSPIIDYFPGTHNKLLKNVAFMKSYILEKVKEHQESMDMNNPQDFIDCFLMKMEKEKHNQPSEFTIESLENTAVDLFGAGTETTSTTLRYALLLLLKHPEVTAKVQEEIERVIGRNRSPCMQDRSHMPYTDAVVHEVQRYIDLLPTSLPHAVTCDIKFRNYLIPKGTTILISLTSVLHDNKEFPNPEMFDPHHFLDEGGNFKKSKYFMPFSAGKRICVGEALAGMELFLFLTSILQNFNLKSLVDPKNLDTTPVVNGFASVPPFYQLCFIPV
smiles,measurement,setting,value
CCCCCCCCCC[n+]1cccc2c3ccccc3ccc21,EC50,[1],> 150 µM (inactive)
same,IC50,Aminopeptidase N,89.6 µM (active)
same,EC50,BJ [2],2.78 µM (active)
same,EC50,BJ [3],11.8 µM (active)
same,EC50,[4],0.723 µM (active)
same,EC50,BJ [5],10.2 µM (active)
same,EC50,[6],8.72 µM (active)
same,EC50,BJ [7],5.93 µM (active)
same,AC50,[8],6.58 µM (active)
CCc1ccc(C(=O)/C=C/c2ccc([N+](=O)[O-])o2)cc1,EC50,BJ [2],5.72 µM (inconclusive)
same,EC50,BJ [3],> 150 µM (inconclusive)
same,EC50,[9],2.25 µM (active)
same,EC50,[10],1.69 µM (active)
same,EC50,BJ [5],4.02 µM (inconclusive)
same,EC50,[6],5.5 µM (inconclusive)
same,IC50,Vero [11],> 25 µM (active)
same,EC50,BJ [7],0.57 µM (active)
same,CC50,Vero [12],12.3 µM (active)
CC12CCC(=O)N1C(C(=O)Nc1nnc(SCc3ccccc3F)s1)CS2 (centres undefined),IC50,[13],4.08 µM (active)
COc1ccc(NC(=O)CN(C)C(=O)Cc2ccc(S(=O)(=O)N3CCOCC3)s2)cc1,IC50,[13],2.03 µM (active)
CN(C)c1ccc(C=C2C(=O)OC3(CCCC3)OC2=O)cc1,IC50,[14],2.41 µM (active)
same,EC50,[15],44.2 µM (active)
same,IC50,[16],2.36 µM (active)
Cc1cc(C)cc(-n2nnc(C(=O)NCc3ccccc3Cl)c2N)c1,AC50,Cytochrome P450 2C19,3.16 µM (inconclusive)
same,AC50,Cytochrome P450 1A2,1.58 µM (inconclusive)
same,AC50,Cytochrome P450 3A4,15.8 µM (inconclusive)
same,AC50,Cytochrome P450 2C9,inconclusive
O=C(c1cc(-c2ccco2)on1)N1CCOCC1,AC50,Cytochrome P450 1A2,0.0251 µM (inconclusive)
same,AC50,Cytochrome P450 2C9,inconclusive
